Laboratory results as given in article PMC8591201, “Anti-Tumor Activity of AZD4547 Against NTRK1 Fusion Positive Cancer Cells Through Inhibition of NTRKs” (Frontiers in Oncology, 2021).

Experiments:
in vitro = test: in vitro; set-up: CellTiter-Glo viability of parental Ba/F3 cells, counter-screen; conditions: mouse, parental ba/f3 cells
Protocol: To obtain the GI50 value of a substance, cell viability was measured using MTT (G4000, Promega, USA) for KM12(Luc) cell and Cell titer glo (G7572, Promega, USA) for other cell lines. For adherent cells, cells were seeded at 5,000 cells/well in a 96-well plate and treated with a substance one day after cell seeding. For suspension cells, 10,000 cells/well were seeded and the substance was treated after 4 h stabilization of cells. The substance was treated at 10 points of 1:3 serial dilution (0–100 µmol/L) for 72 h. For MTT assay, 15 µL dye solution was added to each well and incubated 4 h at 37°C. 100 µL of solubilization solution was added and followed 1 hr incubation. Absorbance at 570 nm of each well was recorded using EnVision microplate reader (Perkin Elmer). For Cell titer glo assay, Cell titer glo reagent was treated in each well and measured the luminescence by EnVision microplate reader (Perkin Elmer). Viable cells in each well were normalized by using 0.5% DMSO-treated wells (100%). The inhibitor dose−response curve was fitted and GI50 values were calculated using Prism 7.0 software (GraphPad). All assays were performed in duplicate and the standard deviation (SD) was determined from two independent experiments. […] Cell viability after 72 h exposure to the indicated inhibitors, determined by using a cell titer glo assay in duplicate mode. […]

TRKB = system: T1, TRKB; test: cells; set-up: species or system Ba/F3; CellTiter-Glo anti-proliferation of Ba/F3 cells transformed with ETV6-NTRK fusions; conditions: Mus musculus, BaF3, 72 h, read-out: LOXO195 GI50
T1 construct: ETV6 (1-336)-NTRK2 kinase domain (455-822) fusion expressed in Ba/F3
Protocol: (§1) To obtain the GI50 value of a substance, cell viability was measured using MTT (G4000, Promega, USA) for KM12(Luc) cell and Cell titer glo (G7572, Promega, USA) for other cell lines. For adherent cells, cells were seeded at 5,000 cells/well in a 96-well plate and treated with a substance one day after cell seeding. For suspension cells, 10,000 cells/well were seeded and the substance was treated after 4 h stabilization of cells. The substance was treated at 10 points of 1:3 serial dilution (0–100 µmol/L) for 72 h. For MTT assay, 15 µL dye solution was added to each well and incubated 4 h at 37°C. 100 µL of solubilization solution was added and followed 1 hr incubation. Absorbance at 570 nm of each well was recorded using EnVision microplate reader (Perkin Elmer). For Cell titer glo assay, Cell titer glo reagent was treated in each well and measured the luminescence by EnVision microplate reader (Perkin Elmer). Viable cells in each well were normalized by using 0.5% DMSO-treated wells (100%). The inhibitor dose−response curve was fitted and GI50 values were calculated using Prism 7.0 software (GraphPad). All assays were performed in duplicate and the standard deviation (SD) was determined from two independent experiments. To investigate the inhibitory activity of AZD4547 against clinically relevant TRK mutants which have resistance to the known TRK inhibitors ([8], [44]), we established Ba/F3 cell lines harboring the ETV6-NTRKs fusion genes (NTRK1, NTRK1G595R, NTRK1G667A, NTRK1G667C, NTRK1G667S and NTRK2) ( Supplementary Figure 2 ). The mutation status of each established cell line was confirmed by sequencing of its cDNA ( Supplementary Figure 2 ). The anti-proliferation activity of AZD4547 was then measured in each cell line ( Figure 2A and Table S2 ). […] However, AZD4547 has no inhibitory activity against Ba/F3 harboring clinically relevant TRKs mutants including TRKA G595R, TRKA G667S, TRKA G667C and TRKA G667A. We next evaluated if AZD4547 is capable of suppressing the phosphorylation of TRKA/B in Ba/F3 cell lines ( Figure 2B ). […] Also, phosphorylation of TRKA/B is almost completely abolished using 1 µM of AZD4547. […] (A) Summary of GI50s of AZD4547 against Ba/F3: TRKA mutants or TRKB. Cell viability after 72 h exposure to the indicated inhibitors, determined by using a cell titer glo assay in duplicate mode. Data was plotted as mean GI50 ± SD of two independent experiments. (B) AZD4547 inhibits phosphorylation of TRKA/B and PLC-gamma in Ba/F3 harboring TRKA and TRKB, respectively. […] Data are representative of three independent experiments.

TRKA G667C = system: T2, TRKA G667C; test: cells; set-up: species or system Ba/F3; CellTiter-Glo anti-proliferation of Ba/F3 cells transformed with ETV6-NTRK fusions; conditions: Mus musculus, BaF3, 72 h, read-out: LOXO195 GI50
T2 construct: ETV6 (1-336)-NTRK1 kinase domain (434-790) fusion expressed in Ba/F3
Protocol: as §1

TRKA G667A = system: T3, TRKA G667A; test: cells; set-up: species or system Ba/F3; CellTiter-Glo anti-proliferation of Ba/F3 cells transformed with ETV6-NTRK fusions; conditions: Mus musculus, BaF3, 72 h, read-out: LOXO195 GI50
T3 construct: ETV6 (1-336)-NTRK1 kinase domain (434-790) fusion expressed in Ba/F3
Protocol: as §1

TRKA G595R = system: T4, TRKA G595R; test: cells; set-up: species or system Ba/F3; CellTiter-Glo anti-proliferation of Ba/F3 cells transformed with ETV6-NTRK fusions; conditions: Mus musculus, BaF3, 72 h, read-out: LOXO195 GI50
T4 construct: ETV6 (1-336)-NTRK1 kinase domain (434-790) fusion expressed in Ba/F3
Protocol: as §1

TRKA = system: T5, TRKA; test: cells; set-up: species or system Ba/F3; CellTiter-Glo anti-proliferation of Ba/F3 cells transformed with ETV6-NTRK fusions; conditions: Mus musculus, BaF3, 72 h, read-out: LOXO195 GI50
T5 construct: ETV6 (1-336)-NTRK1 kinase domain (434-790) fusion expressed in Ba/F3
Protocol: as §1

TRKA G667S = system: T6, TRKA G667S; test: cells; set-up: species or system Ba/F3; CellTiter-Glo anti-proliferation of Ba/F3 cells transformed with ETV6-NTRK fusions; conditions: Mus musculus, BaF3, 72 h, read-out: LOXO195 GI50
T6 construct: ETV6 (1-336)-NTRK1 kinase domain (434-790) fusion expressed in Ba/F3
Protocol: as §1

C[C@@H]1CCc2ncc(F)cc2[C@H]2CCCN2c2ccn3ncc(c3n2)C(=O)N1 [LOXO195]
CC50 at 72 h (in vitro): > 2000 nM | GI50 (TRKB): […] | GI50 (TRKA G667C): […] | GI50 (TRKA G667A): 24.1 ± 8.3 nM | GI50 (TRKA G595R): […] | GI50 (TRKA): […] | GI50 (TRKA G667S): 35.5 ± 2.5 nM
